In brackets after ≈: the same amount, converted by molar mass.
species on record: Rattus norvegicus; experiment: Anti-ulcer activity in stress-induced Sprague-Dawley rat […] model assessed as reduction in ulcer fomation; format: functional; parameters: Activity: concentration or dose not given beside the values; settings: not given

Compound	Activity
CC(C)Cc1ccc(C(C)C(=O)NS(=O)(=O)c2ccc(N)cc2)cc1 (stereo unspecified)	8%
COC1Oc2ccccc2-c2sc(C=O)cc21 (stereo unspecified)	7.3%
CCCc1cc([S+]([O-])c2nc3cc(C)ccc3[nH]2)nc(C)n1 (stereo unspecified)	72.87%
CCCc1cc([S+]([O-])c2nc3cc([N+](=O)[O-])ccc3[nH]2)nc(C)n1 (stereo unspecified)	75.15%
CCCc1cc([S+]([O-])c2nc3ccccc3[nH]2)nc(C)n1 (stereo unspecified)	74.03%
CC(C)Cc1ccc(C(C)C(=O)O)cc1 (stereo unspecified) [IBUPROFEN]	35%

same assay, conditions: Rattus norvegicus, Sprague-Dawley

Compound	ED50
Cc1c(OCC(F)(F)C(F)(F)F)ccnc1C[S+]([O-])c1nc2ccccc2[nH]1 (stereo unspecified)	5.1 mg/kg
Cc1c(OCC(F)(F)C(F)F)ccnc1C[S+]([O-])c1nc2ccccc2[nH]1 (stereo unspecified)	1.2 mg/kg
[O-][S+](Cc1cc(OCC(F)(F)F)ccn1)c1nc2ccccc2[nH]1 (stereo unspecified)	2 mg/kg
Cc1c(OCC(F)(F)F)ccnc1C[S+]([O-])c1nc2ccccc2[nH]1 (stereo unspecified) [LANSOPRAZOLE]	2.4 mg/kg

tested on: Helicobacter pylori; experiment: Antibacterial activity against Helicobacter pylori ATCC 43504 assessed as minimum bactericidal concentration incubated for 24 hrs by broth micro-dilution method; format: functional; settings: not given

Compound	MBC
COCCOCCOCCSc1cccc(CSc2nc3ccccc3[nH]2)c1C	0.5 µg/mL (≈ 1.16 µM)
COCCOCCOCCOCCOCCSc1cccc(CSc2nc3ccccc3[nH]2)c1C	0.5 µg/mL (≈ 0.96 µM)
Cc1c(CSc2nc3ccccc3[nH]2)cccc1SCCn1c([N+](=O)[O-])cnc1C	2 µg/mL (≈ 4.55 µM)
Cc1c(CSc2nc3ccccc3[nH]2)cccc1SCCn1cncn1	4 µg/mL (≈ 10.5 µM)
Cc1c(CSc2nc3ccccc3[nH]2)cccc1SCCN1CCOCC1	1 µg/mL (≈ 2.5 µM)

tested on: Helicobacter pylori; experiment: Antibacterial activity against Helicobacter pylori assessed as inhibition of bacterial growth by broth micro-dilution assay; format: functional; settings: not given

Compound	MIC90
Cc1c(CSc2nc3ccccc3[nH]2)cccc1SCCOC(=O)Nc1ccccc1	> 64 µg/mL

tested on: not listed separately; experiment: Cmax in C57BL/6 mouse administered via oral gavage by LC-MS/MS analysis; format: ADME; settings: in vivo

Compound	Cmax
Cc1c(CSc2nc3ccccc3[nH]2)cccc1SCCOC(=O)Nc1ccccc1	900 ng/mL

biological target: not listed separately; experiment: Inhibition of Hydrogen potassium ATPase (unknown origin); parameters: species or system Homo sapiens; settings: not given

Compound	IC50
Cc1ccc(-c2csc(NC(=O)/C=C/c3ccc(O)c(O)c3)n2)cc1	35.35 µg/mL
COc1ccc2[nH]c([S+]([O-])Cc3ncc(C)c(OC)c3C)nc2c1 (stereo unspecified) [OMEPRAZOLE]	37.91 µg/mL

same assay, conditions: read-out: IC50

Compound	IC50
Brc1ccc(C2CC(c3ccco3)=Nc3ccccc3S2)cc1 (stereo unspecified)	2.1 µM
COc1ccc(C2CC(c3ccco3)=Nc3ccccc3S2)cc1 (stereo unspecified)	2 µM
CCc1ccc(-c2nc3c(C(=O)NCc4cccc(CN)c4)cccn3c2NCc2ccccc2)cc1	6 µM
Cc1ccccc1-c1nc2c(C(=O)NCc3cccc(CN)c3)cccn2c1NCc1ccccc1	6.2 µM

biological target: Urease subunit alpha/Urease subunit beta (Helicobacter pylori (strain ATCC 700392 / 26695) (Campylobacterpylori), UniProt P69996); experiment: Inhibition of Helicobacter pylori urease; format: protein-complex assay; settings: not given
Sequence (P69996 whole entry): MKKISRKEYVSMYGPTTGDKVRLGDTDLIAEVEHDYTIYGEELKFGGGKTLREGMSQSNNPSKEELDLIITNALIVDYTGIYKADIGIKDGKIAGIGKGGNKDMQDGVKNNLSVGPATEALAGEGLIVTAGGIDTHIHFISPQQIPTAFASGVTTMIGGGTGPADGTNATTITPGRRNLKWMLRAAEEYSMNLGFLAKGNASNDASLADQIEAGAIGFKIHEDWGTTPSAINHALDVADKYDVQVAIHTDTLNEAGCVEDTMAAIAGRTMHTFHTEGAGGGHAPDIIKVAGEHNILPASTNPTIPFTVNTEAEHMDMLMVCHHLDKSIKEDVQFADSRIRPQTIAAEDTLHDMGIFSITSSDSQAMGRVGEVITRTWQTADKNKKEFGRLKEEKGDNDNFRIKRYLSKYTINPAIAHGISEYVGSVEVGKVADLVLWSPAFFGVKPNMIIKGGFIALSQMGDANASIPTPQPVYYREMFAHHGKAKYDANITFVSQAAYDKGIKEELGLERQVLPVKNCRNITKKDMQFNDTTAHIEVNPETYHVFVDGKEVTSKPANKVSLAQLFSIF
Sequence (P14916 whole entry, further chain): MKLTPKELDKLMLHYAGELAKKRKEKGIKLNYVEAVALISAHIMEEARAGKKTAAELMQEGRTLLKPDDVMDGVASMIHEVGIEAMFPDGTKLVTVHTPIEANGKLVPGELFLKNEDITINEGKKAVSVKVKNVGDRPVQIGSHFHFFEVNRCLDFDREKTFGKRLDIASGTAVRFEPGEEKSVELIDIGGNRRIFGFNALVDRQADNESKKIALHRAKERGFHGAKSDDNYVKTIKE

Compound	IC50
O=C(Cc1c[nH]c2ccccc12)N/N=C/c1ccc(O)cc1O	1.2 µM
O=C(Cc1c[nH]c2ccccc12)N/N=C/c1cccc(O)c1O	0.9 µM
O=C(Cc1c[nH]c2ccccc12)N/N=C/c1ccc(O)c(O)c1	0.6 µM

tested on: not listed separately; experiment: Inhibition of urease (unknown origin); parameters: species or system Homo sapiens; settings: not given

Compound	IC50
COc1ccc(C(=O)N/N=C/c2cc(O)c(O)c(O)c2)cc1OC	12.6 µM
COc1ccc(C(=O)N/N=C/c2cc(O)cc(O)c2)cc1OC	8.4 µM
COc1ccc(C(=O)N/N=C/c2cc(O)ccc2O)cc1OC	19.2 µM
COC(=O)c1ccc(/C=N/NC(=O)Cc2c[nH]c3ccccc23)cc1	3.9 µM
COc1ccc(C(=O)N/N=C/c2ccc(O)c(O)c2)cc1OC	18.2 µM
CC(C)=CCOc1c2ccoc2cc2oc(=O)ccc12 [ISOIMPERATORIN]	36.4 µM

tested on: Rattus norvegicus; experiment: Protection against aspirin-induced Sprague-Dawley rat model assessed as reduction in gastric glandular lesion at 20 mg/kg, po administered for 30 mins once a day relative to control; format: functional; parameters: scale not given: the % may be the effect or the level left; settings: 0.5 h

Compound	Activity
CC(CC1OCCc2ccccc21)NCCc1ccccc1 (stereo unspecified)	71.3%
CC(C)NC(C)CC1OCCc2ccccc21 (stereo unspecified)	61%
CC(CC1CCCc2ccccc21)NCC(C)c1ccccc1 (stereo unspecified)	71.3%
CC(CC1OCCc2ccccc21)NCC(C)c1ccccc1 (stereo unspecified)	71.3%
CN/C(=N\CCSCc1nc[nH]c1C)NC#N [CIMETIDINE]	51.6%

tested on: Rattus norvegicus; experiment: Gastric ulcerogenic activity in Albino wistar rat assessed as reduction in pyloric lesion at 250 mg/kg, po relative to control; format: functional; parameters: scale not given: the % may be the effect or the level left; settings: not given

Compound	Activity
O=c1oc2ccccc2cc1-c1nc2c(s1)sc1nc(=S)n(-c3ccccc3)c(O)c12	78%
CCOC(=O)/C(C(=O)Nc1sc2sc(-c3cc4ccccc4oc3=O)nc2c1C#N)=C(/C)c1ccccc1	48%
COc1ccc(-n2ncc(-c3ccccc3)c(C(=O)Nc3sc4sc(-c5cc6ccccc6oc5=O)nc4c3C#N)c2=N)cc1	93%
N#CC1=C(N)Nc2nc(-c3cc4ccccc4oc3=O)sc2C1c1ccccc1 (stereo unspecified)	82%
N#Cc1c(N)sc2sc(-c3cc4ccccc4oc3=O)nc12	64%
N#Cc1c(O)nc2sc3sc(-c4cc5ccccc5oc4=O)nc3c2c1O	70%
N#C/C(C(=O)Nc1sc2sc(-c3cc4ccccc4oc3=O)nc2c1C#N)=C(\C=N\Nc1ccccc1)c1ccccc1	66%
N#Cc1c(NC(=O)c2c(-c3ccccc3)cnn(-c3ccc(Cl)cc3)c2=N)sc2sc(-c3cc4ccccc4oc3=O)nc12	94%

tested on: Mus musculus; experiment: Anti-inflammatory activity against carrageenan-induced hind paw edema Swiss albino mouse model assessed as reduction in paw thickness at 10 mg/kg, po relative to control; format: functional; parameters: scale not given: the % may be the effect or the level left; settings: not given

Compound	Activity
CCOC(=O)/C(=N/Nc1ccccc1)Sc1nnc(-c2c([C@H]3CC[C@H]4[C@@H]5CC=C6C[C@H](O)CC[C@]6(C)[C@H]5CC[C@]34C)csc2N)n1-c1ccccc1	0.96%
CCOC1=C(Sc2nnc(-c3c([C@H]4CC[C@H]5[C@@H]6CC=C7C[C@H](O)CC[C@]7(C)[C@H]6CC[C@]45C)csc3N)n2-c2ccccc2)C(c2ccccc2)C(C#N)=C(N)N1 (stereo partly specified)	0.18%
CC(=O)/C(=N/Nc1ccccc1)Sc1nnc(-c2c([C@H]3CC[C@H]4[C@@H]5CC=C6C[C@H](O)CC[C@]6(C)[C@H]5CC[C@]34C)csc2N)n1-c1ccccc1	1.77%

tested on: Mus musculus; experiment: Gastric ulcerogenic activity in Swiss albino mouse model assessed as inhibition of gastric inflammation at 250 mg/kg, po relative to control; format: functional; parameters: scale not given: the % may be the effect or the level left; settings: not given

Compound	Activity
CCOC(=O)/C(=N/Nc1ccccc1)Sc1nnc(-c2c([C@H]3CC[C@H]4[C@@H]5CC=C6C[C@H](O)CC[C@]6(C)[C@H]5CC[C@]34C)csc2N)n1-c1ccccc1	6.7%
CCOC1=C(Sc2nnc(-c3c([C@H]4CC[C@H]5[C@@H]6CC=C7C[C@H](O)CC[C@]7(C)[C@H]6CC[C@]45C)csc3N)n2-c2ccccc2)C(c2ccccc2)C(C#N)=C(N)N1 (stereo partly specified)	5.9%
CC(=O)/C(=N/Nc1ccccc1)Sc1nnc(-c2c([C@H]3CC[C@H]4[C@@H]5CC=C6C[C@H](O)CC[C@]6(C)[C@H]5CC[C@]34C)csc2N)n1-c1ccccc1	6.2%

tested on: Mus musculus; experiment: Anti-ulcerogenic activity in ethanol-induced gastric ulcer mouse model assessed as reduction in ulcer formation at 250 mg/kg; format: functional; settings: not given

Compound	Activity_index
Cc1cc(S(=O)(=O)N2CCN(S(=O)(=O)c3ccccc3)CC2)c2c(C)ccc(C(C)C)cc1-2	1.12
Cc1cc(S(=O)(=O)N2CCN(S(C)(=O)=O)CC2)c2c(C)ccc(C(C)C)cc1-2	1.714
C[C@]12CCC(=O)C=C1CC[C@@H]1[C@@H]2CC[C@]2(C)c3nc(NC4=C(C#N)C(c5ccc(Cl)cc5)C(C#N)=C(N)O4)sc3C[C@@H]12 (stereo partly specified)	2.48
CCOC(=O)CN1CCN(S(=O)(=O)c2cc(C)c3cc(C(C)C)ccc(C)c2-3)CC1	1.875
COc1ccc(C2C(C#N)=C(O)OC(Nc3nc4c(s3)C[C@H]3[C@@H]5CCC6=CC(=O)CC[C@]6(C)[C@H]5CC[C@]43C)=C2C#N)cc1 (stereo partly specified)	2.48

tested on: Rattus norvegicus; experiment: Gastric ulcerogenic activity in Wistar rat assessed as reduction in gastric inflammation at 0.02 mg/kg, po relative to control; format: functional; parameters: scale not given: the % may be the effect or the level left; settings: not given

Compound	Activity
CN(C)c1ccc(/C=C/C(=C2C(=O)NC(=O)NC2=O)c2nc3ccccc3[nH]2)cc1	69.56%
O=C1NC(=O)C(=C(/C=C/c2ccccc2)c2nc3ccccc3[nH]2)C(=O)N1	63.04%
O=C1NC(=O)C(=C(/C=C/c2ccc(Cl)cc2)c2nc3ccccc3[nH]2)C(=O)N1	69.56%
COc1ccc(/C=C/C(=C2C(=O)NC(=O)NC2=O)c2nc3ccccc3[nH]2)cc1	67.17%
COc1nc(C[S+]([O-])c2nc3ccccc3[nH]2)nc2scc(-c3ccccc3)c12 (stereo unspecified)	64.6%
COc1ccc2[nH]c([S+]([O-])Cc3nc(Cl)c4c(-c5ccccc5)csc4n3)nc2c1 (stereo unspecified)	70.2%
COc1ccc2[nH]c([S+]([O-])Cc3nc(Cl)c4c(-c5ccc(Cl)cc5)csc4n3)nc2c1 (stereo unspecified)	72.6%

biological target: T1, Gastrin/cholecystokinin type B receptor (Homo sapiens, UniProt P32239); experiment: Antagonist activity at human CCKBR; format: functional; settings: not given
T1 sequence (P32239 whole entry): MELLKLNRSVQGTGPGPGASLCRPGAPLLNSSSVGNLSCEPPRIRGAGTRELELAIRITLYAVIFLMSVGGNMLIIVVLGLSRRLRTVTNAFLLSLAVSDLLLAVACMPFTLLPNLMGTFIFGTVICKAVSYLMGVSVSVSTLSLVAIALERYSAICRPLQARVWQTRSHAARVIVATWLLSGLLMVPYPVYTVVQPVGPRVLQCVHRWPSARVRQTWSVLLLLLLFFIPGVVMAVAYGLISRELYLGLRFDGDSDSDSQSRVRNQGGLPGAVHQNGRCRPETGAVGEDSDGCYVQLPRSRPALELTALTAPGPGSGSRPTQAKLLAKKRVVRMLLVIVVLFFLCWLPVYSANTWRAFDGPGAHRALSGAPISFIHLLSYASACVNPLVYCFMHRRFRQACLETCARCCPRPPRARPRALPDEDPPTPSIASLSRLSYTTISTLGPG

Compound	IC50
CCCc1ccc([C@@H]2N[C@H](C(=O)OC)CC3c4ccccc4NC32)cc1 (stereo partly specified)	140 µM
COC(=O)[C@H]1Cc2c([nH]c3ccccc23)[C@H](c2ccc(C)cc2)N1	64.6 µM

tested on: Helicobacter pylori; experiment: Antibacterial activity against Helicobacter pylori ATCC 43504 assessed as reduction in bacterial growth incubated for 24 hrs by broth micro-dilution method; format: functional; settings: not given

Compound	MIC
C=CCSCC=C [DIALLYL SULFIDE]	100 µg/mL (≈ 876 µM)

tested on: Helicobacter pylori; experiment: Antibacterial activity against Helicobacter pylori assessed as reduction in bacterial growth incubated for 24 hrs by broth micro-dilution method; format: functional; settings: not given

Compound	MIC
COc1ccc2cc3[n+](cc2c1OC)CCc1cc2c(cc1-3)OCO2 [BERBERINE]	0.78 µg/mL
C=CCSSSSCC=C [DIALLYL TETRASULFIDE]	3 µg/mL (≈ 14.3 µM)
COc1ccc2c(c1OC)C(=O)O[C@@H]2[C@H]1c2cc3c(cc2CCN1C)OCO3 [HYDRASTINE]	25 µg/mL (≈ 65.2 µM)
COc1cc2ccc(=O)oc2cc1O [SCOPOLETIN]	50 µg/mL (≈ 260 µM)
COc1cc2ccc(=O)oc2cc1O[C@@H]1O[C@H](CO)[C@@H](O)[C@H](O)[C@H]1O [SCOPOLIN]	50 µg/mL (≈ 141 µM)
